Data published in paper PMC2652713, “Molecular Blocking of CD23 Supports Its Role in the Pathogenesis of Arthritis” (PLoS ONE, 2009).

Experiments:
human CD23 = assay: Flow cytometry, inhibition of anti-CD23-FITC McAb binding to human macrophages; conditions: human PBL-derived CD23+ macrophages, p30A 10 µg/ml pre-incubation, anti-CD23-FITC 20 µg/ml
Description: (§1) Figure 1 Specific blockade of CD23 reactivity by p30A. Flow cytometry analysis showing the inhibition of (A) anti-CD23-FITC (20 µg/ml) or (B) IgE (10 µg/ml)/anti-IgE-FITC (1 µg/ml) binding to CD23^+ human PBL-derived macrophages (red lines) or following their pre-incubation with p30A peptides (10 µg/ml) (blue lines). (C) CD23 western blot was performed on total protein extract from à CD23^+ B-cell line. The detection with CD23-McAb followed the pre-incubation of the blot with or without p30A (10 µg/ml). Similar protein quantity (50 µg) was used for each western blot condition.

soluble and surface CD23 = assay: Interaction of p30A with soluble and surface CD23 (inferred); type: binding, human
Description: as §1
As control (pCtl), we have used synthetic heptapeptide with unrelated sequence (SFNYNYA).
Total cellular proteins were isolated from CD23^+, ADAM B-cell line in cell lysis buffer (10 mM Tris pH 8.0, 150 mM NaCl, 5 mM EDTA, 1% Triton X-100, 0.05% SDS, 10 mM Sodium Fluoride, 1 mM Sodium Orthovanadate, 5 µM Molibdic Acid) and a mixture of protease inhibitors (all from Sigma Aldrich, Saint Quentin Fallavier, France). Protein concentration was determined using the Bradford assay (Bio Rad, Hemel Hempstead, UK). Protein samples (50 µg total protein) were subjected to SDS-PAGE using a 12% resolving gel. […] Immunoreactive bands (CD23 and Bcl2) were detected using the FluorChem 8800 (Alpha Innotech, San Leandro, USA) and semi-quantified by densitometry using AlphaEase FC (Alpha Innotech).

[1] = test system: adjuvant-induced arthritis in rats; assay: Histopathologic analysis of AIA lesions; type: in vivo, rat, Female Lewis; conditions: 50 days after AIA induction
Description: Figure 6 Inhibition of in vitro and in vivo inflammatory responses in rats by p30A peptide. (A) Rat peritoneal macrophages were activated via CD23 antigens with/without p30A, L-NIL or pCtl. Cell supernatants were collected 48 h later and nitrite levels were quantified. Values are mean±s.d. of cells from 3 different rats. (B) Cumulative clinical score/rat obtained following 50 days post-immunization in all groups. AIA rats were treated either after or before (d0) the onset of symptoms. Treatment consisted of p30A, hydrocortisone (HC, 30 mg/rat)) or pCtl (100 mg/rat). Shown are means of cumulative score/rat±s.d. from 5 (HC) or 8 rats (other conditions). […]
Adjuvant arthritis was induced in six week-old animals by subcutaneous injection at the base of the tail of 300 µl containing 1.8 mg of inactivated Mycobacterium butyricum (Difco Laboratories, Detroit, MI) diluted in emulsion of 8 ml Vaseline, 1 ml polysorbate 80, and 1 ml PBS (Phosphate Buffer Saline, Eurobio). […] The severity of AIA in each paw was quantified daily using an ordinal clinical score measurement from 0 to 4 as follows: no signs of inflammation ( = 0); swelling alone (>2 fold paw diameter) ( = 1) or swelling/immobility ( = 2) of one paw; swelling ( = 3) or swelling/immobility ( = 4) of two paws. Weight evolution of rats was measured daily. […]

human CD23+ macrophages = assay: Cell mortality and apoptosis with p30A versus medium alone; type: cell-based

For FHENWPS [p30A], the “inhibition of FITC-conjugated anti-CD23 McAb binding” value (human CD23) was “inhibits the binding of FITC-conjugated anti-CD23 McAb”, the “binding to human CD23” value (soluble and surface CD23) was “specifically bound human and rat CD23” and the “affinity of interaction with soluble and surface CD23 relative to McAb or IgE-anti-IgE” value (soluble and surface CD23; authors' inference from Figure 1A-C, Kd not given) was “interacts with both soluble and surface CD23 forms with a higher affinity than specific McAb or IgE-anti-IgE immune complexes”. For the same substance, the “components of AIA arthritic lesions (pannus formation and synovium inflammation, joint/bone deformity, bone remodeling and destruction, bone neoformation, cartilage destruction)” value [1] was “significantly decreased all components of AIA arthritic lesions”, the “cell mortality and apoptosis” value (human CD23+ macrophages; in the presence of p30A compared to cells in medium alone, no significant variations) was less than 5% and the cell toxicity (human CD23+ macrophages; monocytes/macrophages) was “without cell toxicity”.
